Assay results taken from patent US4210671A, “Abietamide derivatives, their production and use” (priority 1974, dated 1980).

System: cholesterol in blood
Test: Reduction of blood cholesterol in rats fed a cholesterol diet
Assay type: in vivo
Conditions: male rats, 3 days, relative value: control group = 0, normal group = 100, * 5%, ** 1% significance over control; for % Inhibition (blood cholesterol), Dose in Diet 0.03%: 0.03% test compound in diet with 1% cholesterol and 0.25% sodium cholate; for % Inhibition (blood cholesterol), Dose in Diet 0.1%: 0.1% test compound in diet with 1% cholesterol and 0.25% sodium cholate
Method: A completely synthetic diet containing 1% of cholesterol, 0.25% of sodium cholate and 0.03% and 0.1% of the test compound is given to a group of 6 male rats having a body weight of about 50 g consecutively for 3 days, and the rats are fasted overnight. Then, the rats are decapitated, and their blood is collected to determine the cholesterol concentration in the collected blood. The concentration of cholesterol in blood is measured with Technicon Autoanalyzer (Technicon Laboratory: Method File N-24a).
Each value shown in the Table is a relative value determined based on the supposition that the value of the control group (the cholesterol-administered group) is 0 and the value of the normal group (the non-cholestero-administered group) is 100.

| Molecule | % Inhibition (blood cholesterol), Dose in Diet 0.03% [%] | % Inhibition (blood cholesterol), Dose in Diet 0.1% [%] |
| --- | --- | --- |
| N-Methyl-N-phenyldihydroabietamide | -8 | 27 |
| N-α-Phenylethyldihydroabietamide | 71 | 99 |
| N-Benzyldihydroabietamide | 25 | 64 |
| CC(C)C1=CC2=CC[C@@H]3[C@](C)(CCC[C@@]3(C)C(=O)NC3CCCC3)[C@H]2CC1 [N-Cyclopentylabietamide] | 11 | 32 |
